Measured values published in patent publication US10597388B2, “Pyridazinone herbicides” (FMC CORPORATION, priority 2014, dated 2020).

What was measured:
Type in all cases: in vivo
[1] = tested on: barnyardgrass (Echinochloa crus-galli); test: Test A greenhouse herbicide test, pre- and postemergence
In short: (§1)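 Visual injury ratings, 0 (no effect) to 100 (complete control), versus untreated plants after roughly 10 d in a greenhouse. Compounds, formulated in a surfactant-containing non-phytotoxic solvent, were sprayed on loam–sand soil after sowing (pre) or on one- to two-leaf plants 2–10 cm tall (post).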

corn (Zea mays) = test: as above; settings: Postemergence
In short: as §1

[2] = tested on: foxtail, giant (giant foxtail, Setaria faberii); test: as above
In short: as §1

kochia (Kochia scoparia) = test: as above
In short: as §1

[3] = tested on: pigweed (Amaranthus retroflexus); test: as above
In short: as §1

[4] = tested on: ragweed (common ragweed, Ambrosia elatior); test: as above
In short: as §1

[5] = tested on: ryegrass, Italian (Italian ryegrass, Lolium multiflorum); test: as above
In short: as §1

[6] = tested on: wheat (Triticum aestivum); test: as above; settings: Postemergence
In short: as §1

[7] = tested on: barnyardgrass (Echinochloa crus-galli); test: Test C greenhouse herbicide test, pre- and postemergence
In short: (§2)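 Greenhouse pots; pre-em on seeded loam:sand blend, post-em on 2–18 cm plants (1–4 leaf) in sphagnum peat/vermiculite medium. Formulation: non-phytotoxic solvent + surfactant. Read-out: visual % control (0–100) vs controls at 13–15 d.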

[8] = tested on: galium (catchweed bedstraw, Galium aparine); test: as above
In short: as §2

[9] = tested on: velvetleaf (Abutilon theophrasti); test: as above
In short: as §2

[10] = Postemergence, 125 g ai/ha, 0 to 100 scale where 0 is no effect and 100 is complete control
[11] = Postemergence, 500 g ai/ha, 0 to 100 scale, 0 is no effect, 100 is complete control
[12] = Preemergence, 125 g ai/ha, 0 to 100 scale where 0 is no effect and 100 is complete control
[13] = Preemergence, 500 g ai/ha, 0 to 100 scale where 0 is no effect and 100 is complete control
[14] = 125 g ai/ha, 0 to 100 scale where 0 is no effect and 100 is complete control
[15] = 500 g ai/ha, visual rating after approx. 10 d, 0 to 100 scale (0 no effect, 100 complete control)
[16] = Postemergence, 500 g ai/ha, visual rating after approx. 10 d, 0 to 100 scale (0 no effect, 100 complete control)
[17] = Postemergence, 31 g ai/ha, scale 0 to 100 (0 no effect, 100 complete control)
[18] = Postemergence, 125 g ai/ha, scale 0 to 100, 0 is no effect, 100 is complete control
[19] = Postemergence, 250 g ai/ha, scale 0 to 100, 0 no effect, 100 complete control, 13 to 15 d
[20] = Preemergence, 31 g ai/ha, scale 0 to 100, 0 is no effect, 100 is complete control
[21] = Preemergence, 62 g ai/ha, scale 0 to 100, 0 is no effect, 100 is complete control
[22] = Preemergence, 125 g ai/ha, scale 0 to 100, 0 is no effect, 100 is complete control
[23] = Preemergence, 250 g ai/ha, scale 0 to 100 (0 no effect, 100 complete control)
[24] = postemergence, 62 g ai/ha, scale 0 to 100, 0 no effect, 100 complete control
[25] = 500 g ai/ha, 0 to 100 scale, 0 is no effect, 100 is complete control

Cc1nn(C)c(=O)c(-c2c(C)sc3ccc(Cl)cc23)c1O [Compound 104]
35: Barnyardgrass plant response rating [7, 24]
45: Plant response rating, Barnyardgrass [7, 18]
98: Plant response rating, Galium [8, 18] | Plant response rating, Galium [8, 19] | Galium plant response rating [8, 23] | Plant response rating, Velvetleaf [9, 18]
55: Plant response rating, Barnyardgrass [7, 19]
0: Plant response rating, Corn (corn (Zea mays); [14])
100: Barnyardgrass plant response rating [1, 11] | Plant response rating, Barnyardgrass [1, 13] | Plant response rating, Foxtail, Giant [2, 16] | Plant response rating, Foxtail, Giant [2, 13] | Plant response rating, Kochia (kochia (Kochia scoparia); [16]) | Kochia plant response rating (kochia (Kochia scoparia); [12]) | Plant response rating, Kochia (kochia (Kochia scoparia); [13]) | Pigweed plant response rating [3, 12] | Plant response rating, Pigweed [3, 13] | Plant response rating, Ragweed [4, 10] | Plant response rating, Ragweed [4, 16] | Plant response rating, Ragweed [4, 13] | Plant response rating, Ryegrass, Italian [5, 10] | Plant response rating, Ryegrass, Italian [5, 16] | Ryegrass, Italian plant response rating [5, 12] | Plant response rating, Ryegrass, Italian [5, 13]
85: Plant response rating, Galium [8, 21]
70: Plant response rating, Barnyardgrass [1, 10] | Foxtail, Giant plant response rating [2, 12]
90: Plant response rating, Kochia (kochia (Kochia scoparia); [10]) | Plant response rating, Pigweed [3, 10] | Plant response rating, Pigweed [3, 16] | Ragweed plant response rating [4, 12] | Plant response rating, Galium [8, 20] | Plant response rating, Galium [8, 22] | Plant response rating, Velvetleaf [9, 19] | Plant response rating, Velvetleaf [9, 22] | Velvetleaf plant response rating [9, 23]
20: Plant response rating, Corn (corn (Zea mays); [15]) | Plant response rating, Wheat [6, 14] | Plant response rating, Wheat [6, 15] | Plant response rating, Barnyardgrass [7, 17]
50: Plant response rating, Velvetleaf [9, 17]
95: Plant response rating, Galium [8, 17]
25: Plant response rating, Barnyardgrass [7, 21]
40: Plant response rating, Barnyardgrass [7, 22] | Plant response rating, Velvetleaf [9, 20]
80: Barnyardgrass plant response rating [1, 12] | Plant response rating, Foxtail, Giant [2, 10] | Barnyardgrass plant response rating [7, 23] | Plant response rating, Velvetleaf [9, 21]
10: Plant response rating, Barnyardgrass [7, 20]

CC(=O)Oc1c(C)nn(C)c(=O)c1-c1ccc(F)c2ccccc12 [Compound 90]
35: Plant response rating, Barnyardgrass [7, 20] | Barnyardgrass plant response rating [7, 24]
90: Ragweed plant response rating [4, 12] | Plant response rating, Velvetleaf [9, 21]
75: Plant response rating, Barnyardgrass [7, 22] | Velvetleaf plant response rating [9, 24]
95: Barnyardgrass plant response rating [7, 23] | Plant response rating, Galium [8, 18] | Plant response rating, Galium [8, 19] | Galium plant response rating [8, 24] | Plant response rating, Velvetleaf [9, 22] | Velvetleaf plant response rating [9, 23]
100: Barnyardgrass plant response rating [1, 11] | Plant response rating, Barnyardgrass [1, 13] | Foxtail, Giant plant response rating [2, 11] | Plant response rating, Foxtail, Giant [2, 13] | Plant response rating, Kochia (kochia (Kochia scoparia); [10]) | Kochia plant response rating (kochia (Kochia scoparia); [11]) | Plant response rating, Kochia (kochia (Kochia scoparia); [13]) | Plant response rating, Pigweed [3, 10] | Pigweed plant response rating [3, 11] | Pigweed plant response rating [3, 12] | Plant response rating, Pigweed [3, 13] | Plant response rating, Ragweed [4, 10] | Ragweed plant response rating [4, 11] | Plant response rating, Ragweed [4, 13] | Plant response rating, Ryegrass, Italian [5, 10] | Ryegrass, Italian plant response rating [5, 11] | Ryegrass, Italian plant response rating [5, 12] | Plant response rating, Ryegrass, Italian [5, 13]
50: Foxtail, Giant plant response rating [2, 12] | Plant response rating, Barnyardgrass [7, 18]
85: Plant response rating, Velvetleaf [9, 20]
98: Plant response rating, Velvetleaf [9, 18] | Plant response rating, Velvetleaf [9, 19]
30: Corn plant response rating (corn (Zea mays); [25]) | Wheat plant response rating [6, 25] | Barnyardgrass plant response rating ([7]; Postemergence, 31 g ai/ha, 0 to 100 scale (0 no effect, 100 complete control))
70: Kochia plant response rating (kochia (Kochia scoparia); [12]) | Plant response rating, Barnyardgrass [7, 19]
80: Plant response rating, Barnyardgrass [1, 10] | Plant response rating, Foxtail, Giant [2, 10]
65: Plant response rating, Barnyardgrass [7, 21]
60: Barnyardgrass plant response rating [1, 12]
20: Plant response rating, Corn (corn (Zea mays); [14]) | Plant response rating, Wheat [6, 14]
